Measurements taken from US8192962B2, “Processes for detecting toxic substances” (Daikin Industries, Ltd., priority 2001, dated 2012).

Tested on: Mitochondria-located protein genes
Assay: DNA chip mRNA expression in yeast, mitochondria-located protein genes (Table 2)
Format: cell-based, Saccharomyces cerevisiae S288C
Settings: cells incubated two hours with the chemical substance
Protocol: Yeast (Saccharomyces cerevisiae S288C (α SUC2mal mel gap2 CUP1)) were incubated at 25° C. on YPD medium (yeast extract 1%, polypepton 2%, glucose 2%). One of toxic chemical substances was added to the cells at logarithmic growth phase, and the cells were further incubated for two hours. Cells were cultured without any chemical substance in the same condition, and were used as control. Concentrations of the chemical substances were defined to inhibit the growth of the yeast but not lead to death.
After completion of the incubation, the culture was centrifuged to collect the cells. To the cells, sodium acetate buffer (50 mM sodium acetate, 10 mM EDTA, 1% SDS) was added, and the mixture was shaken at 65° C. for five minutes, followed by returning to room temperature, and obtaining the supernatant, of which the procedures were repeated two times. To the supernatant, ½ amount of a solution of phenol/chloroform was added, and the mixture was centrifuged to give a supernatant, which was added with an equal amount of chloroform, and the mixture was centrifuged to give a supernatant. To the supernatant, an equal amount of isopropanol containing 0.3 M sodium acetate was added, and the mixture was allowed to stand at room temperature for 30 minutes, after which the mixture was centrifuged to give a sediment of the whole RNAs. Seventy % ethanol was added to the sediment, and the mixture was again centrifuged to give a sediment, which was then dried and dissolved in water. mRNA was isolated from the whole RNAs as followings. In view of the fact that a poly A chain is attached to the 3′ terminus of mRNA, a polynucleotide having a poly T structure which was immobilized on the surface of latex beads was used to trap the mRNA, and then the mRNA was washed and eluted with spine column (Oligotex-dT30<Super>mRNA Purification Kit, Takara). Reverse transcription of the mRNA was conducted with a reverse transcriptase (Super Script II Reverse Transcriptase; catalogue No. 18064-014, GibcoBRL) using fluorescence-labeled nucleotides to give cDNAs that were introduced with Cy3-dUTP or Cy5-dUTP during the reverse transcription.
The labeled cDNAs were dissolved in TE buffer (10mM Tris-HCl/1 mM EDTA, pH8.0), and the solution was dropped on the DNA chip containing the whole genes of yeast (DNA Chip Research Inc. Japan) so that the cDNAs were hybridized on the DNA chip at 65° C. for over 12 hours. The fluoresces intensity of the DNA chip was read with a scanner, and the ratio relative to the fluorescence intensity resulting from the absence of chemical substance was estimated as the following, which is shown in Tables 1 to 9: […]

Measured: The level of expressed mRNA in the presence of chemical substance/The level of expressed mRNA in the absence of chemical substance

[Cl][Cd][Cl] [(2), CdCl2]
1.9: yeast gene YJR045C | yeast gene YPL215W
5.4: yeast gene YHR008C
2.6: yeast gene YOR176W
1.7: yeast gene YMR035W | yeast gene YMR083W | yeast gene YOR130C | yeast gene YPL262W
1.0: yeast gene YBR091C | yeast gene YBR185C | yeast gene YBR282W | yeast gene YDL067C | yeast gene YDL198C | yeast gene YDR529C | yeast gene YFL016C | yeast gene YGL018C | yeast gene YGR062C | yeast gene YJL096W | yeast gene YJL133W | yeast gene YLR259C | yeast gene YOL096C | yeast gene YPL040C | yeast gene YPL134C | yeast gene YPR024W | yeast gene YPR047W
1.2: yeast gene YCR046C | yeast gene YDR298C | yeast gene YGR244C | yeast gene YML120C | yeast gene YOR142W | yeast gene YOR150W | yeast gene YPL135W
0.8: yeast gene YBL022C | yeast gene YBR003W | yeast gene YDR347W | yeast gene YGL187C | yeast gene YKL148C | yeast gene YKL170W
2.1: yeast gene YOR020C
2.3: yeast gene YDR258C | yeast gene YPR037C
0.6: yeast gene YLR304C
0.7: yeast gene YBR221C | yeast gene YEL039C | yeast gene YIL155C | yeast gene YJL102W | yeast gene YKL003C | yeast gene YKL194C | yeast gene YMR203W
2.8: yeast gene YCR083W
1.6: yeast gene YDR231C | yeast gene YGL191W | yeast gene YGR076C | yeast gene YGR174C | yeast gene YJL180C | yeast gene YNL256W
1.4: yeast gene YBR044C | yeast gene YKR066C | yeast gene YNL073W | yeast gene YOR100C
3.0: yeast gene YGR008C
2.0: yeast gene YDR178W
2.5: yeast gene YOR316C
1.3: yeast gene YKL016C | yeast gene YLR395C | yeast gene YMR023C | yeast gene YNL104C
4.5: yeast gene YLR348C
0.9: yeast gene YBL030C | yeast gene YBL038W | yeast gene YBL099W | yeast gene YBR122C | yeast gene YBR251W | yeast gene YEL024W | yeast gene YER178W | yeast gene YGR082W | yeast gene YML129C | yeast gene YNL071W
1.1: yeast gene YDR079W | yeast gene YDR377W | yeast gene YJR077C | yeast gene YJR121W | yeast gene YKL141W | yeast gene YLR038C | yeast gene YLR295C | yeast gene YMR089C | yeast gene YMR152W | yeast gene YPR134W
1.8: yeast gene YDL181W | yeast gene YML054C | yeast gene YMR267W | yeast gene YNL055C
0.5: yeast gene YLL041C | yeast gene YOR187W
3.5: yeast gene YGR028W
1.5: yeast gene YCL057W | yeast gene YJL166W | yeast gene YOR037W
2.2: yeast gene YAL039C
2.7: yeast gene YKL142W
